Where a SMILES comes first, the peptide text is derived from it. Bridges are numbered along the chain shown (N, C = ends). [ ]: non-standard residue; d: D form. The star is where a group is joined. Threoninol(2S,3R) = C[C@@H](O)[C@H](CO)N*
What was measured:
[1] = biological target: Vascular endothelial growth factor receptor 1 (Homo sapiens, UniProt P17948); type: cell-based; settings: huvec; further: in other assays of this panel Not Active means under 50% inhibition at 10 µM
[2] = biological target: T1, Type-2 angiotensin II receptor (Homo sapiens, UniProt P50052); type: cell-based; settings: cho-k1; further: in other assays of this panel Not Active means under 50% inhibition at 10 µM
T1 sequence (P50052 whole entry): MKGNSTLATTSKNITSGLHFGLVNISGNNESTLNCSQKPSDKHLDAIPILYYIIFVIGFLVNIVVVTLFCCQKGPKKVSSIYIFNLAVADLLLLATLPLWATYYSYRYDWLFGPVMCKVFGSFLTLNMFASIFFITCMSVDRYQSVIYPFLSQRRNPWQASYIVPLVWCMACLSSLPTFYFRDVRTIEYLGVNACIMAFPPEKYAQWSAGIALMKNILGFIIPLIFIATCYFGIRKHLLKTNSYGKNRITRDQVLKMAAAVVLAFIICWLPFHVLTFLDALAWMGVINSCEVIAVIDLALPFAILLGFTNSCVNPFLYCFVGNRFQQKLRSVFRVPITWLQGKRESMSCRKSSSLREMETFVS

B2 bradykinin receptor = biological target: T2, B2 bradykinin receptor (Homo sapiens, UniProt P30411); type: cell membranes, Membrane; settings: chem-1; further: in other assays of this panel Not Active means under 50% inhibition at 10 µM
T2 sequence (P30411 whole entry): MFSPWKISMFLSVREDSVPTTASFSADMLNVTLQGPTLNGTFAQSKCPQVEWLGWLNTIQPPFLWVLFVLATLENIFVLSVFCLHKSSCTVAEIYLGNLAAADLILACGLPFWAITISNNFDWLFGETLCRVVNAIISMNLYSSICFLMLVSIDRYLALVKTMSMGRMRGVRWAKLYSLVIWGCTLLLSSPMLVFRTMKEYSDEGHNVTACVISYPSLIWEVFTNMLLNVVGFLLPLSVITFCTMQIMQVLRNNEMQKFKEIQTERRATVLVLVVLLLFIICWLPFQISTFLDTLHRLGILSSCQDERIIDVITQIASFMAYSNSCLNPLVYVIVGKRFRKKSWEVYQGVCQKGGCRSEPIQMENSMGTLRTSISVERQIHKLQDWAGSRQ

Interstitial collagenase = biological target: T3, Interstitial collagenase (Homo sapiens, UniProt P03956); assay: biochemical; type: tissue-based, Rheumatoid synovial fibroblasts;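 further: MMP-1 enzyme inhibition assay using a peptide substrate; in other assays of this panel Not Active means under 50% inhibition at 10 µM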
T3 sequence (P03956 whole entry): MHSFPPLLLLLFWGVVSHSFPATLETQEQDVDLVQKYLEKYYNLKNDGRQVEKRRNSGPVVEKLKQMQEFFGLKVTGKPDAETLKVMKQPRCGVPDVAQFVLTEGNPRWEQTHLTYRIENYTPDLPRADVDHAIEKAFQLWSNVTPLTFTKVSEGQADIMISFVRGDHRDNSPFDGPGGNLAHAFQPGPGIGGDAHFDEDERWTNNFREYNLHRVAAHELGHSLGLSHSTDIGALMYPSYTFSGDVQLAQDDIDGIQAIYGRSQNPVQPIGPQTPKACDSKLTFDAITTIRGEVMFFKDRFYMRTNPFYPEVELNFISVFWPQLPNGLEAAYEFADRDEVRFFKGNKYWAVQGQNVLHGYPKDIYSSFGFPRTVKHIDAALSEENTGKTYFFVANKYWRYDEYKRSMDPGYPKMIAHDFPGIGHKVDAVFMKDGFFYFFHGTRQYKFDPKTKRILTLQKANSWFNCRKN

Cytochrome P450 2A6 = biological target: T4, Cytochrome P450 2A6 (Homo sapiens, UniProt P11509); settings: bti-tn-5b1-4; further: in other assays of this panel Not Active means under 50% inhibition at 10 µM
T4 sequence (P11509 whole entry): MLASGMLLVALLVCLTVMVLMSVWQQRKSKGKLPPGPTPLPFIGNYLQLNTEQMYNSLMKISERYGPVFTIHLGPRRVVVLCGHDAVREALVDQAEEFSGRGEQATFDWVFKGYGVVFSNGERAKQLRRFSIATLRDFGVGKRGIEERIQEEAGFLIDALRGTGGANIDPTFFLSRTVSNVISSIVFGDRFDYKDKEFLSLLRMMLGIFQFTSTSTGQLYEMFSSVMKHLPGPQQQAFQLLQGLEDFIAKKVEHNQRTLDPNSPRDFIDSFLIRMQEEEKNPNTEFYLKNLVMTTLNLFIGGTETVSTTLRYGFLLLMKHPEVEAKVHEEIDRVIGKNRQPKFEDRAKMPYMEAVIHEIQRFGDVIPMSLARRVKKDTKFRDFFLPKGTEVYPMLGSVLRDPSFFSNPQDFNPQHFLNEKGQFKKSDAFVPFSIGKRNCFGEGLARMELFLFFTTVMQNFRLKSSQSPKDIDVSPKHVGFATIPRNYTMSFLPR

[3] = biological target: Beta-3 adrenergic receptor (Homo sapiens, UniProt P13945); assay: DRUGMATRIX: Adrenergic beta3 radioligand binding (ligand: [125I] Cyanopindolol); type: cell membranes, Membrane; settings: hek293; Not Active = under 50% inhibition at 10 µM
[4] = DRUGMATRIX: Platelet-Derived Growth Factor (PDGF) radioligand binding (ligand: [125I] PDGF); type: cell-based; settings: nih3t3; Not Active = under 50% inhibition at 10 µM
[5] = DRUGMATRIX: Potassium Channel [KATP] radioligand binding (ligand: [3H] Glyburide); type: cell membranes, Membrane; settings: hit-t15; Not Active = under 50% inhibition at 10 µM

Sequence of Vascular endothelial growth factor receptor 1 (P17948 whole entry): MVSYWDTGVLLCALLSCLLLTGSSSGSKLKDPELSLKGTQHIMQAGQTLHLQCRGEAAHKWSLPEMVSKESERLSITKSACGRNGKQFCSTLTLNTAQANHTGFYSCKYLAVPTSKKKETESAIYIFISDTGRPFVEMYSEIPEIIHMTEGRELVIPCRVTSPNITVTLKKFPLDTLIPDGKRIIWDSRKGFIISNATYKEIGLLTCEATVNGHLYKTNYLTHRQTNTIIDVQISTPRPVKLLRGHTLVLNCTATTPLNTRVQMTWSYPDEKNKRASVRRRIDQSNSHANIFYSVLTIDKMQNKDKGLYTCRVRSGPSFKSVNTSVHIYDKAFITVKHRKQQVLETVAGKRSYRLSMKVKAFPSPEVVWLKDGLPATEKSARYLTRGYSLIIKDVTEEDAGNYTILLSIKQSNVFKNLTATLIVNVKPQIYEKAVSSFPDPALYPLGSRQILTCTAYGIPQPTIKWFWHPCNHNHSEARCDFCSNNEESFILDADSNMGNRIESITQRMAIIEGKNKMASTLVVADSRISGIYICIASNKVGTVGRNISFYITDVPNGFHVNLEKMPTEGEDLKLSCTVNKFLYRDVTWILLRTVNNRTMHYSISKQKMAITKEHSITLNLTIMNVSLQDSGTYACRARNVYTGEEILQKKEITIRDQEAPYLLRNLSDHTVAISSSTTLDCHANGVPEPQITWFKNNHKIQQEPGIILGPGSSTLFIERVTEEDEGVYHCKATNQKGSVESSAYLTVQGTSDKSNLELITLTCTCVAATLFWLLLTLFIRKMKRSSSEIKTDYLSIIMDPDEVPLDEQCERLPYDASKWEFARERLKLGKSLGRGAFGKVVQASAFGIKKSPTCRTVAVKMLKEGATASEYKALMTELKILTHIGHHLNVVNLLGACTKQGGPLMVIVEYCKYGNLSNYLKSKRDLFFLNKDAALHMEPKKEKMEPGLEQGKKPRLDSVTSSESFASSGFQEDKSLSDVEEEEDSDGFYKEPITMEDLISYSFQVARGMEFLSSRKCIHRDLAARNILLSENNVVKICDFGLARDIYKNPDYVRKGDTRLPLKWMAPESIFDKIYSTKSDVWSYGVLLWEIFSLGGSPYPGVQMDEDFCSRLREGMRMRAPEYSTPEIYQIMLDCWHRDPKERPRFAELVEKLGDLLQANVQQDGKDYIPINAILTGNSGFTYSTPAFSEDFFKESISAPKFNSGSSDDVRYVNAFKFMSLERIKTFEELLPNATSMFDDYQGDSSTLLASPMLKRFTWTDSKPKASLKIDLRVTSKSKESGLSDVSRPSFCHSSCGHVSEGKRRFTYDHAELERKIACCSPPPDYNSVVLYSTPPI
Sequence of Beta-3 adrenergic receptor (P13945 whole entry): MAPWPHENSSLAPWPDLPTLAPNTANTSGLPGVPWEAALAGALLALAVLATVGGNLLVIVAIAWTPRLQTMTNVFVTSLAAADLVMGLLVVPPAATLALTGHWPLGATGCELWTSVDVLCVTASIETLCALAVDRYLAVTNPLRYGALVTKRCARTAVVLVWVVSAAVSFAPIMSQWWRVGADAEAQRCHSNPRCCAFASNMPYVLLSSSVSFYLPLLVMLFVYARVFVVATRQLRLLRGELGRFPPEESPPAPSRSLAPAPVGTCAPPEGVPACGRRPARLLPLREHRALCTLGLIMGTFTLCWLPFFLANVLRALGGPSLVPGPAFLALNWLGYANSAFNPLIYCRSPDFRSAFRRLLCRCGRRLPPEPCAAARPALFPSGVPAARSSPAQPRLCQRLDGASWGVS

C[C@@H](O)[C@H](CO)NC(=O)[C@@H]1CSSC[C@H](NC(=O)[C@H](N)Cc2ccccc2)C(=O)N[C@@H](Cc2ccccc2)C(=O)N[C@H](Cc2c[nH]c3ccccc23)C(=O)N[C@@H](CCCCN)C(=O)N[C@@H]([C@@H](C)O)C(=O)N1 (H-[dF]CF[dW]KTC-{Threoninol(2S,3R)}; disulfide 2-7)
Not Active: IC50 [1] | IC50 [2] | IC50 (B2 bradykinin receptor) | IC50 (Interstitial collagenase) | IC50 (Cytochrome P450 2A6) | Ki (Cytochrome P450 2A6) | IC50 [3] | IC50 [4] | Ki [4] | IC50 [5] | Ki [5]

Cc1nccn1CC1CCc2c(c3ccccc3n2C)C1=O (configuration not stated) [ONDANSETRON]
Not Active: IC50 [1] | IC50 [2] | IC50 (B2 bradykinin receptor) | IC50 (Interstitial collagenase) | IC50 (Cytochrome P450 2A6) | Ki (Cytochrome P450 2A6) | IC50 [3] | IC50 [4] | Ki [4] | IC50 [5] | Ki [5]

C#C[C@]1(O)CC[C@H]2[C@@H]3CCc4cc(OC)ccc4[C@H]3CC[C@@]21C [MESTRANOL]
Not Active: IC50 [1] | IC50 [2] | IC50 (B2 bradykinin receptor) | IC50 (Interstitial collagenase) | IC50 (Cytochrome P450 2A6) | Ki (Cytochrome P450 2A6) | IC50 [3] | IC50 [4] | Ki [4] | IC50 [5] | Ki [5]

COc1cc2c(c3oc(=O)c4c(c13)CCC4=O)[C@@H]1C=CO[C@@H]1O2 [AFLATOXIN]
Not Active: IC50 [1] | Ki [1] | IC50 [2] | Ki [2] | IC50 (B2 bradykinin receptor) | Ki (B2 bradykinin receptor) | IC50 (Interstitial collagenase) | Ki (Interstitial collagenase) | IC50 (Cytochrome P450 2A6) | Ki (Cytochrome P450 2A6) | IC50 [3] | Ki [3] | IC50 [4] | Ki [4] | IC50 [5] | Ki [5]

CC1(C)O[C@@H]2C[C@H]3[C@@H]4C[C@H](F)C5=CC(=O)CC[C@]5(C)[C@H]4[C@@H](O)C[C@]3(C)[C@]2(C(=O)CO)O1 [FLURANDRENOLIDE]
Not Active: IC50 [1] | IC50 [2] | IC50 (B2 bradykinin receptor) | IC50 (Interstitial collagenase) | IC50 (Cytochrome P450 2A6) | Ki (Cytochrome P450 2A6) | IC50 [3] | IC50 [4] | Ki [4] | IC50 [5] | Ki [5]

CC1(C)O[C@@H]2C[C@H]3[C@@H]4C[C@H](F)C5=CC(=O)C=C[C@]5(C)[C@@]4(F)[C@@H](O)C[C@]3(C)[C@]2(C(=O)CO)O1 [FLUOCINOLONE ACETONIDE]
Not Active: IC50 [1] | IC50 [2] | IC50 (B2 bradykinin receptor) | IC50 (Interstitial collagenase) | IC50 (Cytochrome P450 2A6) | Ki (Cytochrome P450 2A6) | IC50 [3] | IC50 [4] | Ki [4] | IC50 [5] | Ki [5]

CC(C(=O)O)c1cccc(C(=O)c2ccccc2)c1 (configuration not stated) [KETOPROFEN]
Not Active: IC50 [1] | IC50 [2] | IC50 (B2 bradykinin receptor) | IC50 (Interstitial collagenase) | IC50 (Cytochrome P450 2A6) | Ki (Cytochrome P450 2A6) | IC50 [3] | IC50 [4] | Ki [4] | IC50 [5] | Ki [5]

O=c1ccc2ccccc2o1 [COUMARIN]
Not Active: IC50 [1] | IC50 [2] | IC50 (B2 bradykinin receptor) | IC50 (Interstitial collagenase) | IC50 (Cytochrome P450 2A6) | Ki (Cytochrome P450 2A6) | IC50 [3] | IC50 [4] | Ki [4] | IC50 [5] | Ki [5]

CN1C(=O)COc2c(C(=O)NC3CN4CCC3CC4)cc(Cl)cc21 (configuration not stated) [AZASETRON]
Not Active: IC50 [1] | IC50 [2] | IC50 (B2 bradykinin receptor) | IC50 (Interstitial collagenase) | IC50 (Cytochrome P450 2A6) | Ki (Cytochrome P450 2A6) | IC50 [3] | IC50 [4] | Ki [4] | IC50 [5] | Ki [5]

C[C@H]1C[C@H]2[C@@H]3CCC4=CC(=O)C=C[C@]4(C)[C@@]3(Cl)[C@@H](O)C[C@]2(C)[C@@]1(O)C(=O)CO [BECLOMETHASONE]
Not Active: IC50 [1] | IC50 [2] | IC50 (B2 bradykinin receptor) | IC50 (Interstitial collagenase) | IC50 (Cytochrome P450 2A6) | Ki (Cytochrome P450 2A6) | IC50 [3] | IC50 [4] | Ki [4] | IC50 [5] | Ki [5]

Cc1cc(=O)n(-c2ccccc2)n1C [ANTIPYRINE]
Not Active: IC50 [1] | IC50 [2] | IC50 (B2 bradykinin receptor) | IC50 (Interstitial collagenase) | IC50 (Cytochrome P450 2A6) | Ki (Cytochrome P450 2A6) | IC50 [3] | IC50 [4] | Ki [4] | IC50 [5] | Ki [5]

COc1cccc2c1C(=O)c1c(O)c3c(c(O)c1C2=O)C[C@@](O)(C(=O)CO)C[C@@H]3O[C@H]1C[C@H](N)[C@@H](O)[C@H](C)O1 [EPIRUBICIN]
Not Active: IC50 [1] | IC50 [2] | IC50 (B2 bradykinin receptor) | IC50 (Interstitial collagenase) | IC50 (Cytochrome P450 2A6) | Ki (Cytochrome P450 2A6) | IC50 [3] | IC50 [4] | Ki [4] | IC50 [5] | Ki [5]

C[C@](O)(CS(=O)(=O)c1ccc(F)cc1)C(=O)Nc1ccc(C#N)c(C(F)(F)F)c1 [(R)-BICALUTAMIDE]
Not Active: IC50 [1] | IC50 [2] | IC50 (B2 bradykinin receptor) | IC50 (Interstitial collagenase) | IC50 (Cytochrome P450 2A6) | Ki (Cytochrome P450 2A6) | IC50 [3] | IC50 [4] | Ki [4] | IC50 [5] | Ki [5]

COc1ccc2c(c1)[C@]13CCCC[C@@H]1[C@H](C2)N(C)CC3 [DEXTROMETHORPHAN]
Not Active: IC50 [1] | IC50 [2] | IC50 (B2 bradykinin receptor) | IC50 (Interstitial collagenase) | IC50 (Cytochrome P450 2A6) | Ki (Cytochrome P450 2A6) | IC50 [3] | IC50 [4] | Ki [4] | IC50 [5] | Ki [5]

COP(=O)(OC)OC=C(Cl)Cl [DICHLORVOS]
Not Active: IC50 [1] | IC50 [2] | IC50 (B2 bradykinin receptor) | IC50 (Interstitial collagenase) | IC50 (Cytochrome P450 2A6) | Ki (Cytochrome P450 2A6) | IC50 [3] | IC50 [4] | Ki [4] | IC50 [5] | Ki [5]

CCN[C@@H]1C[C@H](N)[C@@H](O[C@H]2OC(CN)=CC[C@H]2N)[C@H](O)[C@H]1O[C@H]1OC[C@](C)(O)[C@H](NC)[C@H]1O [NETILMICIN]
Not Active: IC50 [1] | IC50 [2] | IC50 (B2 bradykinin receptor) | IC50 (Interstitial collagenase) | IC50 (Cytochrome P450 2A6) | Ki (Cytochrome P450 2A6) | IC50 [3] | IC50 [4] | Ki [4] | IC50 [5] | Ki [5]

CN(C)/N=N/c1[nH]cnc1C(N)=O [DACARBAZINE]
Not Active: IC50 [1] | IC50 [2] | IC50 (B2 bradykinin receptor) | IC50 (Interstitial collagenase) | IC50 (Cytochrome P450 2A6) | Ki (Cytochrome P450 2A6) | IC50 [3] | IC50 [4] | Ki [4] | IC50 [5] | Ki [5]
